Measurements published in patent publication EP0596449A2, “Serotonin receptor antagonists for treating myocardial ischemia” (E.R. SQUIBB & SONS, INC., priority 1992, dated 1994).
Marks after values point to notes of the source that are not given here.

Tested on: globally ischemic, isolated rat hearts
Assay: Effect of 5HT, alone or with 5HT2 antagonist, on time to contracture and pre-ischemic function in isolated rat hearts
Conditions: for Coronary Flow / HR / LVDP: 30 μM 5HT + 3 μM Ketanserin, pre-ischemic; for effect on the pro-ischemic effect of 5HT (time to contracture): 30 µM 5HT plus antagonist, both given 10 minutes before ischemia, Figure 3
Method: To determine the effect of serotonin receptor agonists and antagonists, male Sprague-Dawley rats (450-550 g) were prepared as described below. The rats were anesthetized using 100 mg/kg sodium pentobarbital (i.p.). They were intubated and then treated with i.v. heparin (1000 U/kg). While being mechanically ventilated, their hearts were perfused in situ via retrograde cannulation of the aorta. […] A water-filled latex balloon attached to a metal cannula was then inserted into the left ventricle and connected to a Statham pressure transducer for measurement of left ventricular pressure. […] Pre-ischemia or pre-drug function, heart rate and coronary flow (extracorporeal electromagnetic flow probe) were then measured. Left ventricular developed pressure (LVDP) was calculated from the difference between left ventricular peak systolic pressure and EDP. Cardiac temperature was maintained throughout the experiment by submerging the hearts in 37 ° C buffer which was allowed to accumulate in a stoppered, heated chamber. In another series of hearts, the effect of 5HT on the severity of ischemia was determined. […] Vehicle (0.1% DMSO) given 10 minutes before ischemia (n = 5). The hearts were subjected to global ischemia as described above and time to contracture determined. Reperfusion function and LDH release were not determined in this group.

Structure (SMILES): O=C(c1ccc(F)cc1)C1CCN(CCn2c(=O)[nH]c3ccccc3c2=O)CC1 [Ketanserin, ketanserin]
- Coronary Flow (Post-Drug): 18 ± 1 mL/min/g
- HR (Post-Drug): 335±17^a beats/min
- LVDP (Post-Drug): 130±2 mmHg
- Coronary Flow (Pre-Drug): 18 ± 2 mL/min/g
- HR (Pre-Drug): 270±16 beats/min
- LVDP (Pre-Drug): 141±4 mmHg
- effect on the pro-ischemic effect of 5HT (time to contracture): abolished the pro-ischemic effect of serotonin
- effect on the pro-ischemic effect of 5HT (time to contracture) (listed as ketanserin): completely abolished this pro-ischemic effect
